System: 227483-062-R1-J1-PDC complex spheroids with HUVEC/MSC, viability
Assay: Anticancer human tumor 227483-062-R1-J1-PDC patient-derived pancreatic carcinoma cell line growth inhibition [CLK]
Settings: for IC50: curve of first compound; for viability, T/C: stronger effect = lower value
Description: A high-throughput screen of multi-cell type tumor spheroids was designed to identify active combinations of […] and targeted small molecules. Complex spheroids include a stromal component modeled by human endothelial cells (HUVEC) and fibroblasts modeled by human mesenchymal stem cells (MSCs). The concentration ranges selected for each drug and investigational agent were based upon clinically achievable concentrations if the clinical Cmax of the agent was known.
Compounds. The drugs and investigational agents: cirtuvivint (SM08502; NSC835563), CC-671 (NSC850746), vemurafenib (NSC761431), tapotoclax (NSC804041), sotorasib (NSC818433), adagrasib (NSC831453), MRTX-1133 (NSC836407), BAY2416964 (NSC825713), copanlisib (NSC816437), inavolisib (NSC800729), abemaciclib (NSC768073), osimertinib (NSC779217), entinostat (NSC756642), eltanexor (KPT-8602, NSC794443), venetoclax (NSC766270), ceralasertib (NSC777638), bortezomib (NSC756655), olaparib (NSC753686), talazoparib (NSC767125), alisertib (NSC759677), peposertib (NSC802822), gemcitabine (NSC613327), 5-fluorouracil (NSC19893), SN-38 (NSC673596), oxaliplatin (NSC266046), paclitaxel (NSC125973), and doxorubicin (NSC123127), were obtained from the National Cancer Institute (NCI) Developmental Therapeutics Program Chemical Repository. The FDA-approved anticancer drug set is available from the Developmental Therapeutics Program at https://dtp.cancer.gov/organization/dscb/obtaining/available plates.htm. […] The stock solutions were prepared in dimethyl sulfoxide (DMSO, Sigma-Aldrich, St. Louis, MO, cat. D2650), except for the platinum complexes which were prepared in saline (Quality Biological, Gaithersburg, MD, cat. 114-055-101), at 800-fold the tested concentration and stored at -70 degrees C prior to their use. All drugs and investigational agents were tested over a range starting from a high concentration at or near the clinical Cmax and decreasing in half-log increments. If the clinical Cmax for an agent had not been determined, the highest concentration tested was 10 microM.
Cell Culture. All cells were maintained in an incubator at 37 degrees C and 5% CO2 with 95% humidity. The PDC lines were cultured according to standard operating procedures established by the NCI PDMR. Briefly, all PDCs were thawed and cultured in Matrigel-coated flasks prepared with a working solution of 1X Ham's F-12 nutrient mix, without supplementation (Invitrogen, Waltham, MA, cat. 11765054), 100 U/mL penicillin-streptomycin (Invitrogen, cat. 15140122), and 2.5% Matrigel (Corning Inc., Corning, NY, cat. 354248) for the first three passages. The 947758-054-R-J2-PDC line was cultured in 6B/Colon 1A media, which includes advanced DMEM/F-12 (Thermo Fisher Scientific, cat. 12634028), 10 mM HEPES (Thermo Fisher Scientific, cat. 15630080), 1X GlutaMAX supplement (Thermo Fisher Scientific, cat. 35050061), 0.1 mg/mL primocin (InvivoGen, cat. ant-pm-2), 10% defined fetal bovine serum, heat inactivated (HyClone Laboratories Inc., cat. SH30070.03HI), 1.25 mM N-Acetyl-L-cysteine (Sigma-Aldrich, cat. A9165), 10 mM nicotinamide (Sigma-Aldrich, cat. N0636), 1X B-27 supplement (Thermo Fisher Scientific, cat. 17504044), 1X N-2 supplement (Thermo Fisher Scientific, cat. 17502048), and 10 microM Y-27632 dihydrochloride (Tocris Bioscience, cat. 1254). The 876862-298-R-J1-PDC was cultured in 6E media, which includes all 6B/Colon 1A media components plus 50% L-WRN conditioned media (ATCC, cat. CRL-3276), 50 ng/mL recombinant human EGF recombinant protein (hEGF; Thermo Fisher Scientific, cat. PHG0311), 10 ng/mL recombinant human fibroblast growth factor 10 (hGFG-10; PeproTech, cat. 100-26), 1 ng/mL recombinant human fibroblast growth factor 2 (hFGF-2; PeproTech, cat. 100-18B), and 1 µM prostaglandin E2 (PGE2; Tocris, cat. 2296). The 227483-062-R1-J1-PDC line was cultured in Panc media, containing all 6E components except hFGF-2, with the addition of 500 nM SB-431542 (Selleckchem, cat. S1067) and 10 nM gastrin (Tocris, cat. 3006). […]

[1] = second compound 0.0316 µM, first compound 0.0316 µM
[2] = second compound 0.0316 µM, first compound 0.1 µM
[3] = second compound 0.0316 µM, first compound 0.316 µM
[4] = second compound 0.0316 µM, first compound 1 µM
[5] = second compound 0.0316 µM, first compound 3.16 µM
[6] = second compound 0.0316 µM, first compound 10 µM
[7] = second compound 0.1 µM, first compound 0.0316 µM
[8] = second compound 0.1 µM, first compound 0.1 µM
[9] = second compound 0.1 µM, first compound 0.316 µM
[10] = second compound 0.1 µM, first compound 1 µM
[11] = second compound 0.1 µM, first compound 3.16 µM
[12] = second compound 0.1 µM, first compound 10 µM
[13] = second compound 0.316 µM, first compound 0.0316 µM
[14] = second compound 0.316 µM, first compound 0.1 µM
[15] = second compound 0.316 µM, first compound 0.316 µM
[16] = second compound 0.316 µM, first compound 1 µM
[17] = second compound 0.316 µM, first compound 3.16 µM
[18] = second compound 0.316 µM, first compound 10 µM
[19] = second compound 1 µM, first compound 0.0316 µM
[20] = second compound 1 µM, first compound 0.1 µM
[21] = second compound 1 µM, first compound 0.316 µM
[22] = second compound 1 µM, first compound 1 µM
[23] = second compound 1 µM, first compound 3.16 µM
[24] = second compound 1 µM, first compound 10 µM
[25] = second compound 3.16 µM, first compound 0.0316 µM
[26] = second compound 3.16 µM, first compound 0.1 µM
[27] = second compound 3.16 µM, first compound 0.316 µM
[28] = second compound 3.16 µM, first compound 1 µM
[29] = second compound 3.16 µM, first compound 3.16 µM
[30] = second compound 3.16 µM, first compound 10 µM
[31] = second compound 10 µM, first compound 0.0316 µM
[32] = second compound 10 µM, first compound 0.1 µM
[33] = second compound 10 µM, first compound 0.316 µM
[34] = second compound 10 µM, first compound 1 µM
[35] = second compound 10 µM, first compound 3.16 µM
[36] = second compound 10 µM, first compound 10 µM
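Further: spheroids exposed to compounds for seven days before readout.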
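Wherever viability, T/C is given: percent of DMSO vehicle control luminescence as 100% viability.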

CC1COCCN1c1cc(C2(S(C)(=N)=O)CC2)nc(-c2ccnc3[nH]ccc23)n1 (stereo unspecified) + CN1CCN(c2cc(C(=O)Nc3cc4cc(-c5cnn(C)c5)ccc4cn3)ccn2)CC1
IC50 (second compound 0.0316 µM): 8890 nM
IC50 (second compound 0.1 µM): 1120 nM
IC50 (second compound 0.316 µM): < 31.6 nM
IC50 (second compound 1 µM): < 31.6 nM
IC50 (second compound 3.16 µM): < 31.6 nM
IC50 (second compound 10 µM): < 31.6 nM
viability, T/C [1]: 82.8%
viability, T/C [2]: 98.1%
viability, T/C [3]: 93.7%
viability, T/C [4]: 84.6%
viability, T/C [5]: 85.3%
viability, T/C [6]: 45.8%
viability, T/C [7]: 60.5%
viability, T/C [8]: 74.2%
viability, T/C [9]: 60.2%
viability, T/C [10]: 51.9%
viability, T/C [11]: 33.3%
viability, T/C [12]: 21.7%
viability, T/C [13]: 6.08%
viability, T/C [14]: 4.49%
viability, T/C [15]: 4.56%
viability, T/C [16]: 4.4%
viability, T/C [17]: 6.8%
viability, T/C [18]: 2.88%
viability, T/C [19]: 1.88%
viability, T/C [20]: 2.55%
viability, T/C [21]: 1.66%
viability, T/C [22]: 3.91%
viability, T/C [23]: 2.05%
viability, T/C [24]: 1.59%
viability, T/C [25]: 4.44%
viability, T/C [26]: 3.71%
viability, T/C [27]: 4.61%
viability, T/C [28]: 3.67%
viability, T/C [29]: 2.93%
viability, T/C [30]: 2.93%
viability, T/C [31]: 3.62%
viability, T/C [32]: 2.17%
viability, T/C [33]: 2.15%
viability, T/C [34]: 1.98%
viability, T/C [35]: 2.16%
viability, T/C [36]: 3.07%

COc1cccc2c1C(=O)c1c(O)c3c(c(O)c1C2=O)CC(O)(C(=O)CO)CC3OC1CC(N)C(O)C(C)O1 (stereo unspecified) + CNC(=O)c1ccc(Nc2nc(OC3CCCC3)c3c(-c4ccc5nc(C)oc5c4)c[nH]c3n2)c(OC)c1
IC50 (second compound 0.0316 µM): 277 nM
IC50 (second compound 0.1 µM): 229 nM
IC50 (second compound 0.316 µM): 177 nM
IC50 (second compound 1 µM): 114 nM
IC50 (second compound 3.16 µM): < 31.6 nM
IC50 (second compound 10 µM): < 31.6 nM
viability, T/C [1]: 84.4%
viability, T/C [2]: 91.2%
viability, T/C [3]: 43.6%
viability, T/C [4]: 19.9%
viability, T/C [5]: 1.83%
viability, T/C [6]: 10.3%
viability, T/C [7]: 81.2%
viability, T/C [8]: 79.9%
viability, T/C [9]: 38.1%
viability, T/C [10]: 15%
viability, T/C [11]: 2.41%
viability, T/C [12]: 10.7%
viability, T/C [13]: 81.7%
viability, T/C [14]: 66.2%
viability, T/C [15]: 33.8%
viability, T/C [16]: 9.76%
viability, T/C [17]: 2.28%
viability, T/C [18]: 9.14%
viability, T/C [19]: 66.9%
viability, T/C [20]: 53.5%
viability, T/C [21]: 20.1%
viability, T/C [22]: 4.28%
viability, T/C [23]: 2.52%
viability, T/C [24]: 5.99%
viability, T/C [25]: 45.1%
viability, T/C [26]: 35.9%
viability, T/C [27]: 11.5%
viability, T/C [28]: 2.71%
viability, T/C [29]: 3.57%
viability, T/C [30]: 5.5%
viability, T/C [31]: 41.7%
viability, T/C [32]: 28.1%
viability, T/C [33]: 11.3%
viability, T/C [34]: 2.5%
viability, T/C [35]: 3.15%
viability, T/C [36]: 6.7%

Nc1ccn(C2OC(CO)C(O)C2(F)F)c(=O)n1 (stereo unspecified) + CNC(=O)c1ccc(Nc2nc(OC3CCCC3)c3c(-c4ccc5nc(C)oc5c4)c[nH]c3n2)c(OC)c1
IC50 (second compound 0.0316 µM): 67.5 nM
IC50 (second compound 0.1 µM): 78.5 nM
IC50 (second compound 0.316 µM): 52.4 nM
IC50 (second compound 1 µM): < 31.6 nM
IC50 (second compound 3.16 µM): < 31.6 nM
IC50 (second compound 10 µM): < 31.6 nM
viability, T/C [1]: 77.5%
viability, T/C [2]: 34.3%
viability, T/C [3]: 34.2%
viability, T/C [4]: 34.4%
viability, T/C [5]: 28.2%
viability, T/C [6]: 20%
viability, T/C [7]: 93.3%
viability, T/C [8]: 36.2%
viability, T/C [9]: 35.6%
viability, T/C [10]: 34.2%
viability, T/C [11]: 26.8%
viability, T/C [12]: 19.3%
viability, T/C [13]: 62.2%
viability, T/C [14]: 32.6%
viability, T/C [15]: 27.1%
viability, T/C [16]: 28.9%
viability, T/C [17]: 21.8%
viability, T/C [18]: 15.8%
viability, T/C [19]: 49.2%
viability, T/C [20]: 28.6%
viability, T/C [21]: 20.2%
viability, T/C [22]: 21.1%
viability, T/C [23]: 15.5%
viability, T/C [24]: 12.6%
viability, T/C [25]: 29%
viability, T/C [26]: 20.8%
viability, T/C [27]: 19.6%
viability, T/C [28]: 15.9%
viability, T/C [29]: 13.3%
viability, T/C [30]: 11%
viability, T/C [31]: 23.6%
viability, T/C [32]: 22%
viability, T/C [33]: 16.7%
viability, T/C [34]: 15.2%
viability, T/C [35]: 13.6%
viability, T/C [36]: 9.42%
